Values quoted from earlier work as cited in US11957681B2, “Liquid dosage forms of Imatinib” (SHORLA PHARMA LTD., priority 2018, dated 2024).

Assays:
[1] = compared with Imatinib mesylate

Cc1ccc(NC(=O)c2ccc(CN3CCNCC3)cc2)cc1Nc1nccc(-c2cccnc2)n1 [N-desmethyl derivative]
Share of the AUC for Imatinib mesylate (circulating metabolite): about 15% | Elimination half-life (imatinib mesylate orally administered): ~40 h | Potency in vitro [1]: potency similar to Imatinib mesylate
